Measurements taken from patent US11396499B2, “Lysosomal acid lipase assay” (University of Washington, priority 2018, dated 2022).
Where “and” joins values, the source holds several entries; their conditions need not be identical. Identical values can stand only once.

Experiments:
[1] = target: T1, lysosomal acid lipase (LAL) (Homo sapiens, UniProt P38571); test: LAL assay development: replacement of cardiolipin by phospholipids and of Triton X-100 by detergent; assay type: biochemical; conditions: for change of LAL activity over that measured with cardiolipin: phospholipid tested individually at 0.1 mmol/L as replacement for cardiolipin
T1 construct: from tissue; host or cells: dried blood spots (DBS) from healthy adults, healthy children and LAL-deficient patients
T1 sequence (P38571 77-399): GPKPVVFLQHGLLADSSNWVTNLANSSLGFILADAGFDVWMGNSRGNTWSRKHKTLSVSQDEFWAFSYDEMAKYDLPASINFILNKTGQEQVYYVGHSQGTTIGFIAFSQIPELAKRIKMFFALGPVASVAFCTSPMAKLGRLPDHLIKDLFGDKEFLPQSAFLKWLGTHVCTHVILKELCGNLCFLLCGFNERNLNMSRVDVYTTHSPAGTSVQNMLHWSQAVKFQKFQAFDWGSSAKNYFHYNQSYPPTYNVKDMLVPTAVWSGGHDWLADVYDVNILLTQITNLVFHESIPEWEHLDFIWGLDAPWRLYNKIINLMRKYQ
Experimental: A variety of phospholipids were evaluated as replacements for cardiolipin, which was used in the original LAL assay described by Hamilton et al. (Clin Chim Acta 2012; 413:1207-10). The following phospholipids were tested individually at 0.1 mmol/L: 1,2-dioleoyl-phosphatidylethanolamine, 1,2-dioleoyl-phosphatidylmethanol, 1,2-dioleoyl-phosphatidylcholine, 1,2-dioleoyl-phosphatidylserine, brain phosphatidylethanolamine, 1,2-heptadecyl-phosphatidylcholine, and 1,2-lauryl-phosphatidylcholine.
The original LAL assay described by Hamilton et al. (Clin Chim Acta 2012; 413:1207-10) used Triton X-100 as the detergent, which was replaced this with sodium taurodeoxycholate because this detergent largely remains in the aqueous phase following liquid-liquid extraction with ethyl acetate (thus minimizing injection of large amounts of detergent onto the UPLC column). […] Thus, 2.5 mmol/L was chosen for all subsequent studies.

[2] = system: lysosomal acid lipase (LAL); test: UPLC-MS/MS LAL assay in dried blood spots (DBS) with substrate P-PMHC; assay type: biochemical, human
Experimental: Assay mixture was prepared by combining 9 volumes of 0.1 mol/L sodium acetate buffer (made by adding reagent grade NaOH to 0.1 mol/L reagent-grade acetic acid in water), pH 4.5, containing 2.5 mmol/L sodium taurodeoxycholate hydrate (Sigma, 287245) with 1 volume of 0.5% (w/v) bovine heart cardiolipin in ethanol (Sigma, C1649) containing 3 mmol/L substrate palmitoyl 4-propyl-8-methyl-7-hydroxycoumarin (P-PMHC) and 50 μmol/L carbon-13-labeled 4-propyl-8-methyl-7-hydroxycoumarin (internal standard). The latter was prepared by mixing solid substrate P-PMHC with internal standard solution in absolute ethanol, removing solvent in a centrifugal concentrator under vacuum (or with a jet of nitrogen), and then mixing with commercial cardiolipin/ethanol solution. This ethanol stock could be stored at −20° C. for several months (avoid>2-3 freeze-thaw cycles), and the aqueous buffer could be stored at 4° C. for several months. This was based on no change in assay results when new and stored solutions were used. Assay mixture was made fresh before each use.
To a 3-mm punch from a DBS in a 1.5-mL polypropylene Eppendorf tube was added 200 μL of purified water (Milli-Q, EMD Millipore). The tubes were shaken on an orbital platform shaker for 1 h at ambient temperature. The tube of DBS extract was mixed briefly on a vortex-type mixer, and a 10 μL aliquot was added to the well of a polypropylene, deep-well, 96-well plate (Costar, 3959). Assay mixture (30 μL, ambient temperature) was added to each well. The plate was centrifuged at 3000 g for 5 min at ambient temperature to ensure that all liquid was at the well bottom. The plate was sealed with a film cover (Advantage 96-well round clear Silicone/PTFE cap mat 962611). The plate was shaken at 37° C. in an incubator with orbital mixing at 400 rpm for 3 h. The reactions were quenched by addition of 80 μL of purified water (Milli-Q, EMD Millipore) followed by 400 μL of HPLC-grade ethyl acetate. The well contents were mixed by pipetting up and down approximately 10 times. The plate was centrifuged at 3000 g for 5 min at ambient temperature, and then 120 μL of the upper ethyl acetate layer was transferred to a shallow-well, 96-well polypropylene plate (Greigner, 651201). Solvent was removed at ambient temperature with a jet of nitrogen. To each well was added 200 μL of water/methanol (1:1, Fisher Optima Grade), and samples were mixed by pipetting up and down a few times. The plate was wrapped with aluminum foil and placed in the autosampler chamber at 8° C. in preparation for LC-MS/MS analysis.
Liquid chromatography was carried out using a Waters Acquity binary solvent pump system with a CSH, C18, 1.7-μm, 2.1×50-mm column (Waters, 186005296) and a CSH, C18, 1.7-μm guard column (Vanguard, 186005303). The solvent program was 99% A (70:30, water/acetonitrile, 0.1% formic acid, Fisher Optima grade)/1% B (50:50, acetonitrile/isopropanol, 0.1% formic acid) to 30% A/70% B over 1 min, then jump to 100% B and hold for 0.5 min, then to 99% A over 0.5 min (flow rate 0.8 mL/min). The total run time was 2.5 min. Mass spectrometry was carried out with a Waters Xevo TQ tandem-quadrupole instrument.

[3] = target: T1, lysosomal acid lipase (LAL); test: Testing the library of palmitoyl-4MU analogs as LAL substrates with DBS, with and without Lalistat-2, UPLC-MS/MS; assay type: biochemical; conditions: for overall ranking in the library (activity and LAL specificity): library of 25 compounds
Experimental: The library of palmitoyl-4MU analogs was tested as LAL substrates as follows. Assay cocktail was a solution of 10:1 buffer to substrate stock, each warmed to 37° C. The substrate stock contained 3.7 mM substrate and 0.5% cardiolipin in ethanol. The buffer contained 0.15 M sodium acetate, pH 4.0, and 2.5 mM sodium taurodeoxycholate. Rehydrated blood mixture (40 mL) was combined with 10 mL of H2O or 30 mM Lalistat-2 in an Eppendorf 1.5 mL polypropylene tube and pre-incubated for 15 min at 37° C. with orbital shaking at 250 rpm. Assay cocktail (100 or 150 mL) was added and samples were incubated for 3 hr at 37° C. with orbital shaking at 250 rpm. Assay was quenched by first flash freezing to −80° C. followed by subsequent addition of 400 mL of ethyl acetate and thawing. Samples were then vortexed and centrifuged at 2700×g for 5 min. Top ethyl acetate layer (200 mL) was transferred to an autosampler plate and blown dry under nitrogen gas then resuspended in 1:1 H2O:methanol solution, and […] per well injected for analysis by UPLC-MS/MS. The LC-MS/MS data was converted into mmole of product by using an external standard of 2.5 nmole (the individual corresponding coumarins) spiked into 40 mL rehydrated blood in a 1.5 mL Eppendorf polypropylene tube incubated separately from the assay cocktail, which were quenched immediately following incubation. Additional controls included a Lalistat-2 inhibited rehydrated DBS solution incubated separately from the assay cocktail then combined and immediately quenched as a blank. Unique duplicate spiked controls and blank controls were used for each coumarin analog.

[4] = target: T1, lysosomal acid lipase (LAL); test: Previous fluorometric LAL assay (Hamilton et al.) with palmitoyl-4MU with and without Lalistat-2 in DBS; assay type: biochemical; conditions: same DBS extract, substrate palmitoyl-4MU, 10 μmol/L Lalistat-2
From the text: LAL is detected in leukocytes or fibroblasts using radiometric, immunologic, or fluorescence assays (The metabolic and molecular bases of inherited disease. 8th Ed. New York (NY): McGraw-Hill; 2001. p. 3827-3387). Hamilton and colleagues recently developed a fluorometric assay to detect LAL in dried blood spots (DBS) (Hamilton et al., Clin Chim Acta 2012; 413:1207-10). The assay is based on the release of 4-methylumbelliferone from its ester with palmitic acid. However, the substrate is not specific for LAL, and the method requires two assays performed in parallel, the first in the presence of a LAL-specific covalent inactivator Lalistat-2. LAL activity is calculated from the difference in these 2 assays.
A concentration of P-PMHC in the mixture of 3 mmol/L was settled on based on a combination of high LAL activity and minimal background. The original assay described by Hamilton et al. (Clin Chim Acta 2012; 413:1207-10) used 40 μL of an aqueous extract of a 3-mm DBS added to 160 μL of assay mixture. To keep the solvent volumes for the liquid-liquid extraction to a minimum, thus avoiding long times for solvent removal, 10 μL of an aqueous extract of a 3-mm DBS punch was added to 30 μL of assay mixture.

CCCCCCCC/C=C\CCCCCCCC(=O)OC[C@H](COP(=O)([O-])OCC[N+](C)(C)C)OC(=O)CCCCCCC/C=C\CCCCCCCC [1,2-dioleoyl-phosphatidylcholine]
change of LAL activity over that measured with cardiolipin [1]: None of these phospholipids led to any substantial increase in LAL

CCCCCCCC/C=C\CCCCCCCC(=O)OC[C@H](COP(=O)(O)OCCN)OC(=O)CCCCCCC/C=C\CCCCCCCC [1,2-dioleoyl-phosphatidylethanolamine]
change of LAL activity over that measured with cardiolipin [1]: None of these phospholipids led to any substantial increase in LAL

CCCCCCCC/C=C\CCCCCCCC(=O)OCC(COP(=O)(O)OC)OC(=O)CCCCCCC/C=C\CCCCCCCC (centres unmarked) [1,2-dioleoyl-phosphatidylmethanol]
change of LAL activity over that measured with cardiolipin [1]: None of these phospholipids led to any substantial increase in LAL

CCCCCCCC/C=C\CCCCCCCC(=O)OC[C@H](COP(=O)(O)OC[C@H](N)C(=O)O)OC(=O)CCCCCCC/C=C\CCCCCCCC [1,2-dioleoyl-phosphatidylserine]
change of LAL activity over that measured with cardiolipin [1]: None of these phospholipids led to any substantial increase in LAL

CCCCCCCCCCCCCCCCC(=O)OC[C@H](COP(=O)([O-])OCC[N+](C)(C)C)OC(=O)CCCCCCCCCCCCCCCC [1,2-heptadecyl-phosphatidylcholine]
change of LAL activity over that measured with cardiolipin [1]: None of these phospholipids led to any substantial increase in LAL

CCCCCCCCCCCC(=O)OC[C@H](COP(=O)([O-])OCC[N+](C)(C)C)OC(=O)CCCCCCCCCCC [1,2-lauryl-phosphatidylcholine]
change of LAL activity over that measured with cardiolipin [1]: None of these phospholipids led to any substantial increase in LAL

CCCCCCCCCCCCCCCC(=O)Oc1ccc2c(CCC)cc(=O)oc2c1C [Compound 1, 4-propyl-8-methyl-7-palmitoyloxycoumarin]
Activity without Lalistat-2 ([2]; LAL activity toward substrate P-PMHC, tandem mass spectrometry, DBS of Adult 1 (r9) / Adult 2 (r10), triplicate, blank corrected): 519 µmol/h/L and 539 µmol/h/L and 473 µmol/h/L and 554 µmol/h/L and 582 µmol/h/L | specific activity ([2]; final assay conditions, 3-mm punch of a DBS from a healthy adult, UPLC-MS/MS): 874 µmol/h/L | specificity of the substrate for LAL in DBS ([2]; from Lalistat-2 inhibition and LAL-deficient patients, listed as P-PMHC): highly specific for LAL in DBS | LAL activity in DBS of LAL-deficient patients ([2]; six LAL-deficient patients, UPLC-MS/MS, no Lalistat-2): close to zero | substrate activity with DBS as the source of LAL compared to palmitoyl-4MU ([3]; 3.7 mM substrate stock, 3 hr 37° C.): more active than palmitoyl-4MU | overall ranking in the library (activity and LAL specificity) [3]: highest combination of total lipase activity and LAL-specificity | overall ranking in the library (activity and LAL specificity) ([3]; listed as P-PMHC): best combination of high specific activity on LAL and high specificity for LAL

O=C(Oc1nsnc1N1CCCCC1)N1CCCCC1 [Lalistat-2, reference compound]
inhibition of the activity toward P-PMHC ([2]; DBS extracts from two healthy persons preincubated with 10 μmol/L Lalistat-2): 98% | inhibition of the activity toward P-PMHC ([2]; DBS extracts preincubated with 100 μmol/L Lalistat-2): 99% | total lipase activity blocked [4]: 78%

C[C@H](CCC(=O)NCCS(=O)(=O)[O-])[C@H]1CC[C@H]2[C@@H]3CC[C@@H]4C[C@H](O)CC[C@]4(C)[C@H]3C[C@H](O)[C@]12C.[Na+] [sodium taurodeoxycholate]
decrease of LAL activity on replacement of Triton X-100 ([1]; 2.5 mmol/L sodium taurodeoxycholate): 20%
